This is an account of results in ChEMBL document CHEMBL5390239, “A Novel 7H-[1,2,4]Triazolo[3,4-b]thiadiazine-based Cystic Fibrosis Transmembrane Conductance Regulator Potentiator Directed toward Treatment of Cystic Fibrosis” (ACS Med Chem Lett, 2023).

Activity calls are given as the source filed them. The rule behind the calls is not given here.

Chain of Cystic fibrosis transmembrane conductance regulator (Homo sapiens), P13569 [G551D] (P13569 whole entry G551D): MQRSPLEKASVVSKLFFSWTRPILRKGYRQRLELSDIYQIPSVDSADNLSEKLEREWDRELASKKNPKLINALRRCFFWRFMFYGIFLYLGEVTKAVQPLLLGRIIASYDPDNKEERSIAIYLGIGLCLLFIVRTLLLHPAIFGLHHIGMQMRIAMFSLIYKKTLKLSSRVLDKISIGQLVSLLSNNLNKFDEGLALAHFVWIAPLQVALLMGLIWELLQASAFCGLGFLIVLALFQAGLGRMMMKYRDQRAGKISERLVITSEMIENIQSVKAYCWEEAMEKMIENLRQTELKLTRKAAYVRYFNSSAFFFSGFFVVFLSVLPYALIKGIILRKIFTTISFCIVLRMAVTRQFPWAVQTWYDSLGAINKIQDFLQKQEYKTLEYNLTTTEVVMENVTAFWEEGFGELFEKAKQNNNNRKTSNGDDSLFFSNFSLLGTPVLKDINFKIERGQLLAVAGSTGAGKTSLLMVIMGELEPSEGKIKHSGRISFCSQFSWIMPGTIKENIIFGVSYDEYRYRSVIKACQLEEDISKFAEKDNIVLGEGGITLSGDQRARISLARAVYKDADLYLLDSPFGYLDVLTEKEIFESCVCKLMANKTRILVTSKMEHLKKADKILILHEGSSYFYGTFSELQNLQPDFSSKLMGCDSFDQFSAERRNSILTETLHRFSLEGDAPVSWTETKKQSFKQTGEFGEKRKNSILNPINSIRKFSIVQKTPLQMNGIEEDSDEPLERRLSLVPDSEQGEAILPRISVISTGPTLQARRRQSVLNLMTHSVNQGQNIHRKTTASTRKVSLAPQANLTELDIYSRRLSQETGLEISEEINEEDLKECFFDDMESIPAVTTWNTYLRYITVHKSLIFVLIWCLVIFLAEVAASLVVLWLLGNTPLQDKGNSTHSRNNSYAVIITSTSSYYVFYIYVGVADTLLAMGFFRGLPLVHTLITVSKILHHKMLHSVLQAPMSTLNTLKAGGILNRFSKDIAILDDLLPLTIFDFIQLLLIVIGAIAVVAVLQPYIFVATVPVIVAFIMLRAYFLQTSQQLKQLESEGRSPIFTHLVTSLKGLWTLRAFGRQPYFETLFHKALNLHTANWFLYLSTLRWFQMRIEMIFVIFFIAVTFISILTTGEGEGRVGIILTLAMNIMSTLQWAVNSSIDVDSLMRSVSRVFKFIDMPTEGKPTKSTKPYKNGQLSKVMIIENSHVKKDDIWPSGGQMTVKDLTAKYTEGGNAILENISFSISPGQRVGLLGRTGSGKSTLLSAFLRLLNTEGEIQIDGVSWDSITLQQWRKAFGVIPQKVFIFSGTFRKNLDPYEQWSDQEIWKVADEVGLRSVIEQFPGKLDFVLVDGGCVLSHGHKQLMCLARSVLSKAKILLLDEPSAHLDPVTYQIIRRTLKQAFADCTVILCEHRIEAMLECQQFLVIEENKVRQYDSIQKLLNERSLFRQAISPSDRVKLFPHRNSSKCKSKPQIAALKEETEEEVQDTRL
Chain of Cystic fibrosis transmembrane conductance regulator (Homo sapiens), P13569 [N1303K] (P13569 whole entry N1303K): as the sequence (P13569 whole entry G551D) above, with D551G, N1303K counted along it

The subject of the first assay is Cystic fibrosis transmembrane conductance regulator (Homo sapiens), P13569 [N1303K]. Nature of the assay: Corrector activity at HRP tagged CFTR N1303K mutant (unknown origin) expressed in FRT cells assessed as stabilization of CFTR mutant in plasma membrane by measuring enhanced HRP signal at 5 uM incubated for 24 hrs by ELISA. The conditions noted are these: filed as activator.
On to `CCc1nnc2n1N=C(c1ccc(OC)c(OC)c1)CS2`, for which the result was Active.

For a further assay, the target named is Cystic fibrosis transmembrane conductance regulator (Homo sapiens, UniProt P13569, G551D). Nature of the assay: Potentiation of CFTR G551D mutant (unknown origin) expressed in FRT cells assessed as increase in chloride current in presence of VX-770 by voltage clamp electrophysiology recording. It counts as cell-based.
Chain of Cystic fibrosis transmembrane conductance regulator (P13569 whole entry G551D): as the sequence (P13569 whole entry G551D) above
Conditions: not given
As to `CCc1nnc2n1N=C(c1ccc(OC)c(OC)c1)CS2`, the concentration for a half-maximal effect (EC50) is about 940 nM.

The subject of another assay is Cystic fibrosis transmembrane conductance regulator (Homo sapiens), P13569 [G551D]. Nature of the assay: Potentiation of CFTR G551D mutant (unknown origin) expressed in FRT cells assessed as increase in chloride current at 10 uM in presence of VX-770 by voltage clamp electrophysiology recording relative to VX-770 alone. The class given is cell-based. The note with it: filed as activator.
For `CC(C)C1=Nn2c(nnc2-c2cc(Cl)ccc2Br)SC1`, the Activity came to 267%.
On the same count and under the same terms, next, `COc1ccc(C2=Nn3c(nnc3-c3ccc(Cl)cc3Cl)SC2)cc1`: 142%.
In the case of `CCc1nnc2n1N=C(c1ccc(OC)c(OC)c1)CS2`, the Activity is 204%.
The same measure, in the same setting: next, `CCC1=Nn2c(nnc2-c2cc(Cl)ccc2Br)SC1`: 118%; `FC(F)(F)C1=Nn2c(nnc2-c2cc(Cl)ccc2Br)SC1`: 171%; `CCC1=Nn2c(nnc2-c2cccc(Cl)c2Cl)SC1`: 129%.
On the same count and under the same terms, in the case of `COc1ccc(OC)c(-c2nnc3n2N=C(C(C)C)CS3)c1` it was 166%.
On the same count and under the same terms, next, `FC(F)(F)C1=Nn2c(nnc2-c2ccc(Cl)cc2Cl)SC1`: 159%; `COc1ccc(F)c(-c2nnc3n2N=C(C(C)C)CS3)c1`: 237%.
Turning to `CC(C)(C)C1=Nn2c(nnc2-c2cc(Cl)ccc2Br)SC1`, the Activity is 267%.
The same measure, in the same setting: in the case of `CC(C)C1=Nn2c(nnc2-c2ccc(Cl)cc2Cl)SC1` it was 204%; in that of `CCc1nnc2n1N=C(c1ccc(Cl)c(Cl)c1)CS2`, 103%; in that of `CCC1=Nn2c(nnc2-c2cc(OC)c(OC)c(OC)c2)SC1`, 119%.
On the same count and under the same terms, next, `CCC1=Nn2c(nnc2-c2ccc(Cl)c(Cl)c2)SC1`: 187%; `COc1ccc(Br)c(-c2nnc3n2N=C(C(C)C)CS3)c1`: 232%.
For `CC1=Nn2c(nnc2-c2cc(Cl)ccc2Br)SC1`, the Activity came to 155%.
Same read-out and setting: next, `CC(C)C1=Nn2c(nnc2-c2cc(Cl)ccc2Cl)SC1`: 196%.
The same measure, in the same setting: in the case of `CC1=Nn2c(nnc2-c2ccc(Cl)cc2Cl)SC1` it was 137%; in that of `CCC1=Nn2c(nnc2-c2ccc(Cl)cc2Cl)SC1`, 257%.
Same read-out and setting: next, `CCC1=Nn2c(nnc2-c2ccc(OC)c(OC)c2)SC1`: 107%; `CCC1=Nn2c(nnc2-c2cccc(Cl)c2)SC1`: 162%; `CC(C)(C)C1=Nn2c(nnc2-c2ccc(Cl)cc2Cl)SC1`: 379%.
In the case of `CCC1=Nn2c(nnc2-c2ccc(Cl)cc2)SC1`, the Activity stood at 149%.
On the same count and under the same terms, next, `COc1cc(Br)c(-c2nnc3n2N=C(C(C)C)CS3)cc1OC`: 106%.

What is called EC50 is the concentration that produces a half-maximal response.
